Experimental data: paper PMC10582583, “The novel cyclophilin inhibitor C105SR reduces hepatic ischaemia–reperfusion injury via mitoprotection” (JHEP Reports, 2023)
Like-named read-outs stand apart in the source and are kept apart here.

Key:
[1] = test system: hepatic ischaemia-reperfusion injury in C57BL/6J mice; assay: Mouse model of hepatic ischaemia-reperfusion injury; assay type: in vivo; settings: 50 mg/kg osmotic pump, 1 h ischaemia, 6 h reperfusion
Protocol: Mice (10–12 weeks-old) were anesthetised with isoflurane and subcutaneously implanted with Alzet® osmotic pump containing C105SR (50 mg/kg) or vehicle 24 h before the surgical procedure. The mice were anesthetised with isoflurane and subjected to partial hepatic ischaemia by clamping the hepatic artery and portal vein for 60 min, followed by 6 h of reperfusion induced by removal of the clamp. The sham-operated group underwent laparotomy without vascular occlusion.
Briefly, 70% of the liver was subjected to 1 h of ischaemia followed by 6 h of reperfusion, as recently described.[16] C105SR was administered using osmotic pumps at a dose of 50 mg/kg.
Mouse serum analysis. Blood was collected at 6 h of reperfusion. Alanine aminotransferase (ALT) and aspartate aminotransferase (AST) activities were measured on an automated analyzer in the Biochemistry Department of Henri Mondor Hospital.
Histological Analysis. Hematoxylin and eosin staining was performed on 4-μm thick formalin-fixed paraffin-embedded tissue sections. Slides were scanned at x20 magnification using a virtual slide scanning system (Axio scan7/ZEN slidescan). Necrosis areas were quantified with […]
TUNEL Assay. Terminal deoxynucleotidyl-transferase (TdT) dUTP Nick-End Labeling (TUNEL) was performed on formalin-fixed paraffin-embedded tissue sections using a commercial kit (Abcam, Cambridge, United Kingdom) following the manufacturer’s instructions. The number of TUNEL-positive cells were quantified using QuPath on slides scanned at x20 magnification using a virtual slide scanning system (Axio scan7/ZEN slidescan).
Caspase 3/7 activity assay. Caspase 3/7 activity was assessed using the commercially Caspase-Glo® 3/7 assay (Promega, Madison, Wisconsin) following the manufacturer’s instructions.
Briefly, Caspase-Glo® 3/7 Reagent was incubated with the cells and the caspase3/7 activity was determined by measuring luminescence with a luminometer (Berthold). Caspase3/7 activity was expressed as a percentage of the untreated control.
In silico modeling and docking. […]

[2] = Plasmatic and hepatic concentration of C105SR in mice; assay type: in vivo; settings: sc, mouse, 50 mg/kg by subcutaneous osmotic pump
Protocol: Briefly, 70% of the liver was subjected to 1 h of ischaemia followed by 6 h of reperfusion, as recently described.[16] C105SR was administered using osmotic pumps at a dose of 50 mg/kg. […]
simulation was performed using @TOME‐2 server with no constraint. The images were generated using PyMOL and MarvinSketch.
Determination of plasmatic and hepatic concentration of C105SR. Mice (10-12 weeks-old, n=6) were anesthetized with isoflurane and subcutaneously implanted with Alzet® osmotic pump containing C105SR (50 mg/kg) or vehicle. 24h after, the blood and the liver were collected. C105SR in plasma and liver homogenates was extracted with cold acetonitrile containing 0.1% of acetic acid and centrifugation at 13,000 x g for 10 min at 4 °C. C105SR dosage was carried out by tandem mass spectrometric detection with a TSQ QUANTIS® mass spectrometer (ThermoFisher Scientific, Villebon-sur-Yvette, France), with an electrospray ionization source (ESI) which was set in positive electro-spray ionization (ESI+). The acquired data were processed using Trace Finder® software version 4.1 (Thermo Fisher Scientific, Villebon-sur-Yvette, France). Optimization of the MS conditions has been performed by single direct infusion of reference standards of the analyte. Two […]

In the case of `COc1ccc(Br)cc1[C@H](NC(=O)NCc1ccc2c(c1)CCCN2)C(=O)N1CCC[C@@H]1c1cccc2ccsc12` [Compound C105SR, 1-((S)-2-((R)-2-(benzo[b]thiophen-7-yl)pyrrolidin-1-yl)-1-(5-bromo-2-methoxyphenyl)-2-oxoethyl)-3-((1,2,3,4-tetrahydroquinolin-6-yl)methyl)urea], the “hepatocyte necrosis (histology)” value [1] is reported as “significantly protected”, the “serum ALT and AST levels” value [1] is reported as “significantly protected” and the “number of TUNEL-positive apoptotic cells” value ([1]; vs vehicle) is reported as “significantly reduced”. The concentration at 24 h ([2]; liver, read-out: hepatic concentration) was roughly 30 nM and the concentration at 24 h ([2]; plasma, read-out: plasmatic concentration) was roughly 30 nM.
